Test results as given in US11000033B2, “Ketone or oxime compound, and herbicide” (NISSAN CHEMICAL CORPORATION, priority 2014, dated 2021).

Columns and labels:
[1] = tested on: Scirpus juncoides; assay: Test Example 1: herbicidal activity, application before weed generation in submerged conditions (symbol B); type: in vivo; conditions: application herbicide amount 320 g/ha
How it was run: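 Scores run 0 to 5 by herbicidal ratio, with 5 meaning 90% or more and 0 meaning 5% or lower, read 3 weeks after treatment. Compound was applied as a diluted emulsion to the water surface of submerged alluvial-soil pots on the day weed seeds were sown.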

[2] = tested on: Echinochloa crus-galli var. crus-galli; assay: Test Example 4: herbicidal effect by soil treatment (symbol H); type: in vivo; conditions: application herbicide amount 320 g/ha
How it was run: (§1)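 Seeds were sown in sterilized diluvial soil, covered with about 1.5 cm of soil, and the soil surface was sprayed with a water-diluted emulsion of the compound at a predetermined rate. Plants grew in a greenhouse at 25° C. to 30° C.; effects were scored visually 3 weeks after application.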

[3] = tested on: Abutilon theophrasti; assay: Test Example 4: herbicidal effect by soil treatment (symbol M); type: in vivo; conditions: application herbicide amount 320 g/ha
How it was run: as §1

[4] = tested on: Chenopodium album; assay: Test Example 4: herbicidal effect by soil treatment (symbol O); type: in vivo; conditions: application herbicide amount 320 g/ha
How it was run: as §1

[5] = tested on: Galium spurium; assay: Test Example 4: herbicidal effect by soil treatment (symbol Q); type: in vivo; conditions: application herbicide amount 320 g/ha
How it was run: as §1

[6] = tested on: Lolium multiflorum Lam.; assay: Test Example 5: herbicidal effect by foliage application, plastic box (symbol K); type: in vivo; conditions: 320 g/ha, 3 weeks after application
How it was run: (§2)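 Visual herbicidal score, taken three weeks post-application, of seedlings sprayed on the foliage with water-diluted emulsion at a predetermined amount; plants were 14 days old, greenhouse-raised at 25° C. to 30° C.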

[7] = tested on: Apera spica-venti; assay: Test Example 5: herbicidal effect by foliage application, plastic box (symbol L); type: in vivo; conditions: 320 g/ha, 3 weeks after application
How it was run: as §2

[8] = tested on: Amaranthus retroflexus; assay: Test Example 5: herbicidal effect by foliage application, plastic box (symbol N); type: in vivo; conditions: 320 g/ha, 3 weeks after application
How it was run: as §2

[9] = tested on: rice plant; assay: Test Example 5: effect on crop by foliage application, plastic box (symbol b); type: in vivo; conditions: 320 g/ha, 3 weeks after application
How it was run: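 Crop and weed seeds sown in spots in sterilized diluvial soil in plastic boxes and covered with about 1.5 cm soil. Plants raised in a greenhouse at 25° C. to 30° C. for foliar application.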

Row | Structure (SMILES) | Herbicidal effect grade, B: Scirpus juncoides [1] | H (Echinochloa crus-galli var. crus-galli) herbicidal effect grade [2] | M (Abutilon theophrasti) herbicidal effect grade [3] | O (Chenopodium album) herbicidal effect grade [4] | Q (Galium spurium) herbicidal effect grade [5] | K: Lolium multiflorum Lam., herbicidal effect grade [6] | L: Apera spica-venti, herbicidal effect grade [7] | N: Amaranthus retroflexus, herbicidal effect grade [8] | b: directly sowed rice plant, effect on crop grade [9] | melting point [°C]
1 | CON=C(C)CC1CC(OC)=C(c2c(C)cc(C)cc2C)C1=O (stereo not shown) [1-001, 2-mesityl-3-methoxy-5-{2-(methoxyimino)propyl}cyclopent-2-enone] | 0 (Herbicidal ratio of 5% or lower (almost no effect)) | 0 (Herbicidal ratio of 5% or lower (almost no effect)) | 0 (Herbicidal ratio of 5% or lower (almost no effect)) | 0 (Herbicidal ratio of 5% or lower (almost no effect)) | 0 (Herbicidal ratio of 5% or lower (almost no effect)) | 0 (Herbicidal ratio of 5% or lower (almost no effect)) | 0 (Herbicidal ratio of 5% or lower (almost no effect)) | 0 (Herbicidal ratio of 5% or lower (almost no effect)) | 0 (Herbicidal ratio of 5% or lower (almost no effect)) | 92 to 98
2 | CON=C(C)CC1CC(O)=C(c2c(C)cc(C)cc2C)C1=O (stereo not shown) [1-002, 3-hydroxy-2-mesityl-5-{2-(methoxyimino)propyl}cyclopent-2-enone] | 4 (Herbicidal ratio of 70% or higher and lower than 90%) | 5 (Herbicidal ratio of 90% or more (almost completely withered)) | 5 (Herbicidal ratio of 90% or more (almost completely withered)) | 5 (Herbicidal ratio of 90% or more (almost completely withered)) | 1 (Herbicidal ratio of 5% or higher and lower than 20%) | 5 (Herbicidal ratio of 90% or more (almost completely withered)) | 5 (Herbicidal ratio of 90% or more (almost completely withered)) | 5 (Herbicidal ratio of 90% or more (almost completely withered)) | 5 (Herbicidal ratio of 90% or more (almost completely withered)) | 170 to 173
3 | CCON=C(C)CC1CC(O)=C(c2c(C)cc(C)cc2C)C1=O (stereo not shown) [1-003] | 4 (Herbicidal ratio of 70% or higher and lower than 90%) | 5 (Herbicidal ratio of 90% or more (almost completely withered)) | 4 (Herbicidal ratio of 70% or higher and lower than 90%) |  | 0 (Herbicidal ratio of 5% or lower (almost no effect)) | 5 (Herbicidal ratio of 90% or more (almost completely withered)) | 5 (Herbicidal ratio of 90% or more (almost completely withered)) | 3 (Herbicidal ratio of 40% or higher and lower than 70%) | 5 (Herbicidal ratio of 90% or more (almost completely withered)) | 135 to 140
4 | CCC(CC1CC(O)=C(c2c(C)cc(C)cc2C)C1=O)=NOC (stereo not shown) [1-038] | 5 (Herbicidal ratio of 90% or more (almost completely withered)) | 5 (Herbicidal ratio of 90% or more (almost completely withered)) | 4 (Herbicidal ratio of 70% or higher and lower than 90%) | 0 (Herbicidal ratio of 5% or lower (almost no effect)) | 0 (Herbicidal ratio of 5% or lower (almost no effect)) | 5 (Herbicidal ratio of 90% or more (almost completely withered)) | 5 (Herbicidal ratio of 90% or more (almost completely withered)) | 2 (Herbicidal ratio of 20% or higher and lower than 40%) | 5 (Herbicidal ratio of 90% or more (almost completely withered)) | 147 to 149
5 | CON=CCC1CC(O)=C(c2c(C)cc(C)cc2C)C1=O (stereo not shown) [1-050] | 2 (Herbicidal ratio of 20% or higher and lower than 40%) | 4 (Herbicidal ratio of 70% or higher and lower than 90%) | 1 (Herbicidal ratio of 5% or higher and lower than 20%) | 0 (Herbicidal ratio of 5% or lower (almost no effect)) |  | 5 (Herbicidal ratio of 90% or more (almost completely withered)) | 3 (Herbicidal ratio of 40% or higher and lower than 70%) | 0 (Herbicidal ratio of 5% or lower (almost no effect)) | 5 (Herbicidal ratio of 90% or more (almost completely withered)) | 96 to 108
6 | CC(CC1CC(O)=C(c2c(C)cc(C)cc2C)C1=O)=NOC(C)C (stereo not shown) [1-052] | 5 (Herbicidal ratio of 90% or more (almost completely withered)) | 5 (Herbicidal ratio of 90% or more (almost completely withered)) | 4 (Herbicidal ratio of 70% or higher and lower than 90%) | 0 (Herbicidal ratio of 5% or lower (almost no effect)) |  | 5 (Herbicidal ratio of 90% or more (almost completely withered)) | 5 (Herbicidal ratio of 90% or more (almost completely withered)) | 0 (Herbicidal ratio of 5% or lower (almost no effect)) | 5 (Herbicidal ratio of 90% or more (almost completely withered)) | 93 to 95
7 | CC(CC1CC(O)=C(c2c(C)cc(C)cc2C)C1=O)=NOC(C)(C)C (stereo not shown) [1-053] | 3 (Herbicidal ratio of 40% or higher and lower than 70%) | 5 (Herbicidal ratio of 90% or more (almost completely withered)) | 1 (Herbicidal ratio of 5% or higher and lower than 20%) | 0 (Herbicidal ratio of 5% or lower (almost no effect)) |  | 5 (Herbicidal ratio of 90% or more (almost completely withered)) | 3 (Herbicidal ratio of 40% or higher and lower than 70%) | 0 (Herbicidal ratio of 5% or lower (almost no effect)) | 5 (Herbicidal ratio of 90% or more (almost completely withered)) | 145 to 147
8 | CC(CC1CC(O)=C(c2c(C)cc(C)cc2C)C1=O)=NO (stereo not shown) [1-058] | 0 (Herbicidal ratio of 5% or lower (almost no effect)) | 5 (Herbicidal ratio of 90% or more (almost completely withered)) | 4 (Herbicidal ratio of 70% or higher and lower than 90%) | 0 (Herbicidal ratio of 5% or lower (almost no effect)) |  | 5 (Herbicidal ratio of 90% or more (almost completely withered)) | 5 (Herbicidal ratio of 90% or more (almost completely withered)) | 1 (Herbicidal ratio of 5% or higher and lower than 20%) | 5 (Herbicidal ratio of 90% or more (almost completely withered)) | 95 to 98
9 | CCCC(CC1CC(O)=C(c2c(C)cc(C)cc2C)C1=O)=NOC (stereo not shown) [1-062] | 2 (Herbicidal ratio of 20% or higher and lower than 40%) | 5 (Herbicidal ratio of 90% or more (almost completely withered)) | 0 (Herbicidal ratio of 5% or lower (almost no effect)) | 0 (Herbicidal ratio of 5% or lower (almost no effect)) | 0 (Herbicidal ratio of 5% or lower (almost no effect)) | 5 (Herbicidal ratio of 90% or more (almost completely withered)) | 5 (Herbicidal ratio of 90% or more (almost completely withered)) | 0 (Herbicidal ratio of 5% or lower (almost no effect)) | 5 (Herbicidal ratio of 90% or more (almost completely withered)) | 134 to 137
